Laboratory results taken from patent publication US10702506B2, “Small molecule inhibitors of pendrin ion exchange and pharmaceutical compositions” (THE REGENTS OF THE UNIVERSITY OF CALIFORNIA, priority 2016, dated 2020).

Molecular target: T1, human SLC26A3 (Homo sapiens, UniProt P40879)
T1 construct: host or cells: COS7 fibroblasts, transient (Lipofectamine 2000), with EYFP-HIF
T1 sequence (P40879 1-764): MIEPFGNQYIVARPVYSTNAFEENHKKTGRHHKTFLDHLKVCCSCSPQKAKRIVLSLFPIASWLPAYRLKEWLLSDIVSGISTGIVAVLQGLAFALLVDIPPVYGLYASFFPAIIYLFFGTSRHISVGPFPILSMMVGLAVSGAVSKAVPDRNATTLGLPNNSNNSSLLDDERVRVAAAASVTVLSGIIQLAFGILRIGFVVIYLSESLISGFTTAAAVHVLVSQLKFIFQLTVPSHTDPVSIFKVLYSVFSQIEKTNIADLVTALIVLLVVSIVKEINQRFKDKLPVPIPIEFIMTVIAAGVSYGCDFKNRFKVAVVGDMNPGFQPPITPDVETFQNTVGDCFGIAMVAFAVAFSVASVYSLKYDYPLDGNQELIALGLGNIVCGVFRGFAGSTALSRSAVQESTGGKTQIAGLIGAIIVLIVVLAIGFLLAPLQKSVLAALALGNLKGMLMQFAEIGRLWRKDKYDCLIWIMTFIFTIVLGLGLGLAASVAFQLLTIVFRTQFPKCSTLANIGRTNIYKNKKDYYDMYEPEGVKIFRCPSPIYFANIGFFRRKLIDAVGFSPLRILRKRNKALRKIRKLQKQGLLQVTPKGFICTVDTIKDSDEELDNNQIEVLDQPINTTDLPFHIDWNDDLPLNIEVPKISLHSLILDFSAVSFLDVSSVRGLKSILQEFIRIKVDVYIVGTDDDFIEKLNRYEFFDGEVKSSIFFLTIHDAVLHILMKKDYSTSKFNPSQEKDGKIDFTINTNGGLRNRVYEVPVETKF
Assay: SCN− transport YFP quenching assay in SLC26A3-expressing COS7 cells
Assay type: cell-based
Settings: 25 μM, 30 min; 70 mM SCN− gradient
Procedure: SLC26A3 activity was measured using a SCN^− transport assay that produced YFP fluorescence quenching (FIG. 4B).
SLC26A3-mediated ion transport was measured in COS7 fibroblasts transiently transfected to express EYFP-HIF and human SLC26A3 (Origene, Rockville, Md.). COS7 cells were cultured in DMEM-H21 supplemented with 10% FBS, 2 mM glutamine, 100 U/ml penicillin and […] streptomycin and transfected using Lipofectamine 2000 (Invitrogen, Carlsbad, Calif.). SLC26A3-mediated transport was measured from EYFP-HIF fluorescence after addition of a NaSCN-substituted PBS solution to generate a 70 mM SCN^− gradient. Control experiments were done using COS-7 cells expressing EYFP-HIF alone.

SMILES: Cn1nc(COc2cccc(F)c2)c2c1CCN(C(=O)Nc1ccc(Cl)cc1)C2 [PDSinh-A01]
- inhibition of SLC26A3 SCN− transport (YFP quenching): not significantly inhibited
